Results reported in patent US4031093A, “1,6-Dihydro-6-oxo-2-(ortho-substituted phenyl)pyrimidine-5-carboxylic acid derivatives” (priority 1976, dated 1977).
Read-outs that look alike come from different tables or passages of the source.

How the values were obtained:
[1] = system: reagin-mediated rat Passive Cutaneous Anaphylaxis (PCA); assay: reagin-mediated rat Passive Cutaneous Anaphylaxis (PCA) screening test; assay type: in vivo, rat (Sprague-Dawley)
Procedure: The reagin-mediated rat Passive Cutaneous Anaphylaxis (PCA) screening test used to evaluate the present compounds is generally regarded as one of the best animal models for use in predicting the antiallergy activity of test compounds in man. Briefly, the method consists of passive sensitization of skin sites on the test animals with reaginic antibodies followed after 24 hours by administration of the test drug and antigen challenge. The allergic response is measured by use of Evans' blue dye and is evaluated by the spot diameter at the injection site. Details of the test are provided below.
A substituted ovalbumin antigen is used both as immunogen and challenging antigen. The antigen is prepared as follows: 500 mg. ovalbumin (EA) and 500 mg. K2 CO3 are dissolved in 25 ml. distilled H2 O and stirred at room temperature for 5 minutes. Five hundred (500) mg. dinitrobenzene sulfonic acid, Na^+ salt, (previously recrystallized from hot absolute ethanol) is then added slowly with continued stirring. The reaction mixture is then immediately placed in the dark and allowed to proceed for 2 hours with constant stirring. After 2 hours the mixture is placed in suitable dialysis tubing and dialyzed against 5 changes (4 liters each) of distilled H2 O at 5° C. After dialysis the product is lyophilized and stored at room temperature in a brown or amber container. The antigen obtained will appear as a light yellow, amorphous solid which is very soluble in water or saline. It is designated as DNP denatured ovalbumin (DNP-d EA).
Adult, male Sprague-Dawley rats are used as a source of reagin-rich antisera for the PCA model. Immunization is by a combination of DNP-d EA on Al (OH)3 gel and B. pertussis vaccine. Preparation of the DNP-d EA - gel immunogen is as follows: Dissolve the DNP-d EA in TBS so as to give a concentration of 10 mg./ml. Slowly add 1 ml. of this solution to 10 ml. Al(OH)3 gel (10 mg. solids/ml.) with constant stirring at room temperature. Stir the mixture an additional 30 minutes to insure a uniform adsorption of antigen on gel.
The resulting preparation is then used in combination with phase I B. pertussis vaccine to immunize male S/D rats as follows: For each rat administer 0.1 ml. DNP-d EA - gel suspension intramuscularly in each hind leg (200 μg DNP-d EA and 2 mg. gel total dose). Follow these injections by the intraperitoneal administration of 1.0 ml. B. pertussis vaccine (10-20 × 10^9 organisms). The use of light ether anesthesia during this procedure is recommended to insure proper intramuscular and intraperitoneal injections. Nine days following immunization (but no longer than 10) the animals are exsanguinated by cardiac puncture or abdominal aorta cannulation under ether or pentobarbital anesthesia. The collected whole blood is allowed to clot, the serum separated by centrifugation and the individual serum samples stored frozen until assayed for IgE content.
Individual serum samples should be screened for reaginic antibody concentration before being pooled with other sera, as not all rats respond to immunization procedures with reagin production. A 1:50 saline dilution of serum from each immunized rat is used for this purpose. Intradermal injections of 0.05 ml. of the diluted sera are made in the shaven backs of two small female recipient rats, 100-120 gms. Several serum samples can be tested simultaneously in recipient animals. After a 24 to 48 hour latent period antigen challenge is accomplished by […] administration to each rat of 1 mg. DNP-d EA in 0.5 ml. 0.5% Evans' blue dye in saline. Sera which show positive PCA reactions at the 1:50 dilution, as measured 20 to 30 minutes post-challenge are pooled, dispensed in small aliquots and stored at -70° C. or lower until used. Negative sera may be discarded.
The IgE titer of the antisera pool should then be determined. […]

[2] = bronchial asthma treatment; cited from earlier work
[3] = system: release of mediators, e.g. histamine and SRS-A; details: administered to asthmatic patients prior to inhalation of specific antigens; cited from earlier work
[4] = cited from earlier work
[5] = po, Table I, p.o., 10 minutes prior to antigen challenge, esters suspended in Tween/CMC, read-out: ID50 (dose of compound that inhibits 50% of the response), ethyl esters, p.o.
[6] = po, Table II, p.o., 10 minutes prior to antigen challenge, acids solubilized in aqueous sodium bicarbonate, read-out: ID50 (dose of compound that inhibits 50% of the response), 5-carboxylic acids, p.o.
[7] = iv, Table II, i.v., 1-5 minutes prior to antigen challenge, acids solubilized in aqueous sodium bicarbonate, read-out: ID50 (dose of compound that inhibits 50% of the response), 5-carboxylic acids, i.v.

| Structure (SMILES) | ED50 [1, 5] | ED50 [1, 6] | also measured |
| --- | --- | --- | --- |
| CCOC(=O)c1cnc(-c2ccccc2OC(C)CC)[nH]c1=O (racemic) [Example 10, Ethyl (±)-1,6-dihydro-6-oxo-2-(2-sec-butoxyphenyl)pyrimidine-5-carboxylate] | 0.5 mg/kg |  |  |
| CCOC(=O)c1cnc(-c2cc(OC)ccc2OCC)[nH]c1=O [Example 15C, Ethyl 1,6-dihydro-6-oxo-2-(2-ethoxy-5-methoxyphenyl)pyrimidine-5-carboxylate] | 0.3 mg/kg |  |  |
| CCOC(=O)c1cnc(-c2ccccc2OC(C)C)[nH]c1=O [Example 7, Ethyl 1,6-dihydro-6-oxo-2-(2-isopropoxyphenyl)pyrimidine-5-carboxylate] | ~2 mg/kg |  |  |
| CCCCOc1ccccc1-c1ncc(C(=O)OCC)c(=O)[nH]1 [Example 9, Ethyl 1,6-dihydro-6-oxo-2-(2-n-butoxyphenyl)pyrimidine-5-carboxylate] | 0.5 mg/kg |  |  |
| CCOC(=O)c1cnc(-c2ccccc2OCC(C)C)[nH]c1=O [Example 12, Ethyl 1,6-dihydro-6-oxo-2-(2-isobutoxyphenyl)pyrimidine-5-carboxylate] | ~3 mg/kg |  |  |
| CCOC(=O)c1cnc(-c2cc(OC)ccc2OC)[nH]c1=O [Example 15A, Ethyl 1,6-dihydro-6-oxo-2-(2,5-dimethoxyphenyl)pyrimidine-5-carboxylate] | 5 mg/kg |  |  |
| CCC(C)Oc1ccccc1-c1ncc(C(=O)O)c(=O)[nH]1 (racemic) [Example 24B, (±)-1,6-Dihydro-6-oxo-2-(2-sec-butoxyphenyl)pyrimidine-5-carboxylic acid] |  | 0.5 mg/kg |  |
| CCOC(=O)c1cnc(-c2cc(Cl)ccc2OCC)[nH]c1=O [Example 15B, Ethyl 1,6-dihydro-6-oxo-2-(5-chloro-2-ethoxyphenyl)pyrimidine-5-carboxylate] | ~0.5 mg/kg |  |  |
| CCOc1ccccc1-c1ncc(C(=O)O)c(=O)[nH]1 [Example 20, 1,6-Dihydro-6-oxo-2-(2-ethoxyphenyl)pyrimidine-5-carboxylic acid] |  | 0.5 mg/kg | ED50 [1, 7]: 0.07 mg/kg |
| CC(C)COc1ccccc1-c1ncc(C(=O)O)c(=O)[nH]1 [Example 24C, 1,6-Dihydro-6-oxo-2-(2-isobutoxyphenyl)pyrimidine-5-carboxylic acid] |  | 0.5 mg/kg |  |
| CC(C)NCC(O)c1ccc(O)c(O)c1 (stereo not drawn) [isoproterenol] |  |  | side effects [2]: undesirable side effects, e.g. cardiac stimulation and gastrointestinal distress |
| CC(C)Oc1ccccc1-c1ncc(C(=O)O)c(=O)[nH]1 [Example 22, 1,6-Dihydro-6-oxo-2-(2-isopropoxyphenyl)pyrimidine-5-carboxylic acid] |  | 0.8 mg/kg |  |
| CCOc1ccc(N)cc1-c1ncc(C(=O)O)c(=O)[nH]1 [Example 24F, 1,6-Dihydro-6-oxo-2-(5-amino-2-ethoxyphenyl)pyrimidine-5-carboxylic acid] |  | 0.9 mg/kg |  |
| O=C(O)c1cc(=O)c2c(OCC(O)COc3cccc4oc(C(=O)O)cc(=O)c34)cccc2o1 [DSCG, Disodium cromoglycate, reference compound] | > 30 mg/kg | > 30 mg/kg | inhibition of release of mediators [3]: inhibits the release of mediators, e.g. histamine and SRS-A; ED50 ([1]; iv, Table I, i.v., compound dosed at time of challenge, solubilized in saline, read-out: ID50, DSCG, i.v. (Table I)): 0.3 mg/kg; oral absorption [4]: not orally absorbed |
| CCCOc1ccc(OC)cc1-c1ncc(C(=O)OCC)c(=O)[nH]1 [Example 19, Ethyl 1,6-dihydro-6-oxo-2-(5-methoxy-2-n-propoxyphenyl)-pyrimidine-5-carboxylate] | 0.7 mg/kg |  |  |
| CCOC(=O)c1cnc(-c2ccccc2OCC2CC2)[nH]c1=O [Example 18, Ethyl 1,6-dihydro-6-oxo-2-(2-cyclopropylmethoxyphenyl)pyrimidine-5-carboxylate] | ~0.3 mg/kg |  |  |

| Structure (SMILES) | ED50 [1, 5] | ED50 [1, 6] | also measured |
| --- | --- | --- | --- |
| CCOC(=O)c1ccc(OCC)c(-c2ncc(C(=O)OCC)c(=O)[nH]2)c1 [Example 16, Ethyl 1,6-dihydro-6-oxo-2-(5-carbethoxy-2-ethoxyphenyl)pyrimidine-5-carboxylate] | 1 mg/kg |  |  |
| CCOc1ccc(OC)cc1-c1ncc(C(=O)O)c(=O)[nH]1 [Example 24G, 1,6-Dihydro-6-oxo-2-(2-ethoxy-5-methoxyphenyl)pyrimidine-5-carboxylic acid] |  | 0.2 mg/kg |  |
| CCOc1ccc(N(C)C)cc1-c1ncc(C(=O)O)c(=O)[nH]1 [Example 26, 1,6-Dihydro-6-oxo-2-(5-dimethylamino-2-ethoxyphenyl)pyrimidine-5-carboxylicacid] |  | 0.3 mg/kg |  |
| CCCOc1ccccc1-c1ncc(C(=O)OCC)c(=O)[nH]1 [Example 5, Ethyl 1,6-dihydro-6-oxo-2-(2-n-propoxyphenyl)pyrimidine-5-carboxylate] | ~5 mg/kg |  |  |
| CCCOc1ccc(OC)cc1-c1ncc(C(=O)O)c(=O)[nH]1 [Example 27, 1,6-Dihydro-6-oxo-2-(5-methoxy-2-n-propoxyphenyl)pyrimidine-5-carboxylic acid] |  | 0.3 mg/kg |  |
| CCCCOc1ccccc1-c1ncc(C(=O)O)c(=O)[nH]1 [Example 23, 1,6-Dihydro-6-oxo-2-(2-n-butoxyphenyl)pyrimidine-5-carboxylic acid] |  | 0.5 mg/kg |  |
| CNC[C@H](O)c1ccc(O)c(O)c1 [epinephrine] |  |  | side effects [2]: undesirable side effects, e.g. cardiac stimulation and gastrointestinal distress |
| CCOC(=O)c1cnc(-c2cc(N)ccc2OCC)[nH]c1=O [Example 17, Ethyl 1,6-dihydro-6-oxo-2-(5-amino-2-ethoxyphenyl)pyrimidine-5-carboxylate] | 0.5 mg/kg |  |  |
| CCOc1ccc(Cl)cc1-c1ncc(C(=O)O)c(=O)[nH]1 [Example 24E, 1,6-Dihydro-6-oxo-2-(5-chloro-2-ethoxyphenyl)pyrimidine-5-carboxylic acid] |  | 0.5 mg/kg |  |
| C=CCOc1ccccc1-c1ncc(C(=O)O)c(=O)[nH]1 [Example 24A, 1,6-Dihydro-6-oxo-2-(2-allyloxyphenyl)pyrimidine-5-carboxylic acid] |  | 0.5 mg/kg |  |
| COc1ccc(OC)c(-c2ncc(C(=O)O)c(=O)[nH]2)c1 [Example 24D, 1,6-Dihydro-6-oxo-2-(2,5-dimethoxyphenyl)pyrimidine-5-carboxylic acid] |  | 1 mg/kg |  |
| CCCOc1ccccc1-c1ncc(C(=O)O)c(=O)[nH]1 [Example 21, 1,6-Dihydro-6-oxo-2-(2-n-propoxyphenyl)pyrimidine-5-carboxylic acid] |  | 0.9 mg/kg | ED50 [1, 7]: ~0.1 mg/kg |
| O=C(O)c1cnc(-c2ccccc2OCC2CC2)[nH]c1=O [Example 25, 1,6-Dihydro-6-oxo-2-(2-cyclopropylmethoxyphenyl)pyrimidine-5-carboxylic acid] |  | ~0.1 mg/kg |  |
| C=CCOc1ccccc1-c1ncc(C(=O)OCC)c(=O)[nH]1 [Example 8, Ethyl 1,6-dihydro-6-oxo-2-(2-allyloxyphenyl)pyrimidine-5-carboxylate] | 0.5 mg/kg |  |  |
| CN1[C@@H]2CC[C@H]1C[C@@H](OC(=O)C(CO)c1ccccc1)C2 (stereo partly drawn) [atropine] |  |  | side effects [2]: undesirable side effects, e.g. cardiac stimulation and gastrointestinal distress |
| CCOC(=O)c1cnc(-c2ccccc2OCC)[nH]c1=O [Example 1, Ethyl 1,6-dihydro-6-oxo-2-(2-ethoxyphenyl)pyrimidine-5-carboxylate] | ~2 mg/kg |  | ED50 ([1]; iv, Table I, i.v., 1-5 minutes prior to antigen challenge, esters suspended in Tween/CMC, read-out: ID50 (dose of compound that inhibits 50% of the response), ethyl esters, i.v.): 0.4 mg/kg |
